Key:
pancreatic cancer cells = experiment: Transmigration assay (modified Boyden chamber, SDF-1 stimulus); type: cell-based, human; conditions: SDF-1 as migratory stimulus
[1] = system: primary human pancreatic cancer cells; experiment: CSC content by flow cytometry in primary pancreatic cancer cells from patients; type: cell-based; conditions: freshly isolated primary pancreatic cancer cells
Experimental: The findings from Examples 1.1 and 1.2 in tumour cell lines were reproduced in primary patient tissue with viability tested with propidium iodide (FIGS. 4A-4D).
The findings from Examples 2.1 in tumour cell lines were reproduced in fresh primary tumour cells from patients with pancreatic cancer with viability tested with propidium iodide (FIGS. 13A-13D). In vitro treatment with the combined therapy of 100 ng/ml Gemcitabine and 5 μM SB431542 led to the elimination of CD 133^+ cancer stem cells.
Primary human pancreatic cancer cells. Human pancreatic cancers were obtained with written informed consent from all patients. Tissue fragments were minced with scissors into small (1-2 mm^3) fragments. Enzymatic digestion was performed using a mixture of DMEM medium and collagenase (Stem Cell Technologies, Vancouver, Canada) for 90 min at 37° C. (Hermann et al., 2007, supra).
Cytometry. Pancreatic CSC were identified by CD133/1-APC or CD133-PE (Miltenyi, Bergisch-Gladbach, Germany) (Hermann et al., 2007, supra). Side population experiments were performed as described by Goodell et al. (1996) (see Goodell et al., 1996, J Exp Med 183, 1797-1806) and cells were identified by exclusion of the vital dye Hoechst 33342. […]

[2] = system: L3.6pl pancreatic cancer cells; experiment: Tumorigenicity after in vitro pre-treatment and orthotopic implantation; type: in vivo, mice
Experimental: After 96 hours of pretreatment, the remaining viable cells were orthotopically implanted into the pancreas of mice, which received no further treatment in vivo.
Cultivated pancreatic cancer cells were exposed to either Gemcitabine alone representing clinical standard therapy, SB431542 alone, or a combination of Gemcitabine and SB431542 in the above given respective concentrations. After 96 hours of pretreatment, the remaining viable cells were orthotopically implanted into the pancreas of mice, which received no further treatment in vivo.
A prerequisite of CSC is their ability to form tumours in secondary recipients. Due to the limited number of cancer (stem) cells that can be obtained from primary tissues, it is virtually impossible to reproducibly perform in vivo treatment experiments with fresh patient-derived cells. Therefore, all subsequent in vivo experiments were performed with the established L3.6pl pancreatic cancer cells. The design of the experiment is illustrated in FIG. 20A. […] After 4 days of pretreatment, the surviving cells were orthotopically implanted into the pancreas, which received no further in vivo treatment. Tumorigenicity was first determined by PET scans on day 30 (FIGS. 20B, 20C; left panel) and by final macroscopic and microscopic histological evaluation on day 35 (FIGS. 20B, 20C; right panel).
(§1) Animals and Orthotopic Implantation of Tumour Cells. Single-cell suspensions were orthotopically implanted into the pancreas of female NMRI nu/nu mice (Janvier, Le Genest-Saint-Isle, France) (Hermann et al., 2007, supra). Size and weight of the pancreatic tumours were monitored.
(§2) In vitro treatment of pancreatic cancer cells. […] For the evaluation of the in vivo tumorigenicity, […] L3.6pl cells were pretreated with the respective regimen and the remaining viable cells were orthotopically implanted into the pancreas of nude mice and evaluated on day 35. For the systemic infusion assay, cells were labelled with the Qtracker 800 labelling kit (Invitrogen) according to the manufacturer's instructions, and 5×10^5 cells were injected intravenously into mice. After 4 weeks, explanted lungs were scanned for metastases with a near-infrared imaging platform (Odyssey, Li-cor, Lincoln, Nebr.). Positive signals were verified by histology (H&E staining).

[3] = system: L3.6pl orthotopic pancreatic tumours; experiment: In vivo treatment of established orthotopic pancreatic cancer (Gemcitabine, Cyclopamine, Rapamycin)
Experimental: Gemcitabine was administered twice a week by intraperitoneal injections at 125 mg/kg BW.
In order to test the identified combination therapy in a clinically most relevant setting, a model of established orthotopic pancreatic cancer was used in this experiment. […] The detailed experimental setup is depicted in FIG. 21A. […] Gemcitabine was given for a prolonged period of 11 weeks in analogy to clinical practice. Tumour volume was non-invasively measured on day 42 using a caliper (FIG. 21B), and was controlled via MR imaging on day 49 (FIG. 21C).
as §1
In vivo treatment of established pancreatic cancers. Seven days after orthotopic implantation of L3.6pl cells, mice were randomized to the respective treatment groups. Gemcitabine was administered biweekly (125 mg/kg i.p.). […] Rapamycin (5 mg/kg/day; Wyeth, Madison, N.J.) was orally administered via the drinking water as reported previously (Huber et al., 2007, supra).

[4] = system: CD133+ CXCR4+ CSC subpopulation; experiment: Flow cytometry of migrating CSC; type: cell-based, human
[5] = system: pretreated Qtracker-labeled pancreatic cancer cells; experiment: Systemic infusion assay of pretreated cells (lung metastasis); type: in vivo, mice; conditions: cells pretreated in vitro, systemically infused; lungs scanned
From the text: Recently, the inventors have shown that the chemokine receptor CXCR4 and its specific lig- and Stromal-Derived Factor-1 (SDF-1) plays a pivotal role in metastasis of pancreatic CSC (see Hermann et al., 2007, supra). […] Pretreated and Qtracker-labeled cells were systemically infused. Seeded cells were tracked using near infrared scanning of the lungs as the primary target organ. Positive signals were confirmed by histological analysis.
as §2

`Nc1ccn(C2OC(CO)C(O)C2(F)F)c(=O)n1` (stereo not drawn) [Gemcitabine, 4-amino-1-[3,3-difluoro-4-hydroxy-5-(hydroxymethyl)tetrahydrofuran-2-yl]-1H-pyrimidin-2-one] was tested, and the migratory activity (pancreatic cancer cells) was “unable to significantly reduce”, the “CSC fraction (CD133+ and CD24+CD44+EpCAM+ populations)” value [1] was “tended to relatively enrich” and the “tumour take rate / tumorigenicity” value ([2]; 4 days of pretreatment, PET day 30, histology day 35) was “did not generate any effect”. For the same compound, the “tumorigenicity after in vitro pre-treatment” value ([2]; 96 hours pretreatment, 100 ng/ml Gemcitabine, 5 μM SB431542) was “close to no effect”, the “prolongation of median survival” value ([3]; Gemcitabine 125 mg/kg i.p. twice a week) was 22 days and the survival ([3]; Gemcitabine vs control, CRG vs Gemcitabine alone) was “significantly prolonged”. For the same compound, the tumour size ([3]; compared to control) was “significantly smaller compared to control”, the “tumour volume on day 42 (caliper)” value ([3]; day 42) was “considerable tumor size” and the “tumour volume via MR imaging on day 49” value ([3]; day 49) was “considerable tumor size”. The “latest day of survival” value ([3]; mouse, in vivo) was at most 71 days, the median survival ([3]; mouse, in vivo) was 57 days and the tumour take rate ([3]; mouse, in vivo) was 100%. The “CD133+ cells in the residual tumour tissue” value ([3]; orthotopic mouse model of xenotransplanted human pancreatic cancer) was “significant enrichment”, the “CD133+ CXCR4+ migrating CSC” value [4] was “enriches” and the “metastatic activity in vivo” value [5] was “all mice receiving Gemcitabine-pretreated cells showed evidence for metastasis”.

Source: patent US20110151020A1, “ACTIVE SUBSTANCE COMBINATION WITH GEMCITABINE FOR THE TREATMENT OF EPITHELIAL CANCER” (priority 2008, published 2011)
